Structures can show the parent of a compound that is named as a salt.
Key:
[1] = tested on: ID188 patient-derived PDAC 2D line (pre-FOLFIRINOX); assay: normalised area under dose-response curve (viability relative to DMSO, 7 doses up to 10 µM) (fraction (AUC)); higher = less sensitive (more viability retained); details: 72 h; top dose: 10 µM
In short: (§1)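 2D PDAC cells grown out from patient-derived organoids were robotically seeded in 96-well plates at 1,500–3,000 cells/well and kept overnight at 37°C in 5% CO2. Compounds from a SelleckChem library were then applied for 72 h at seven concentrations, made as a 3-fold dilution series with 10 µM as the highest. CellTiter-Glo luminescence was measured 10 min later. Viability was normalised to control wells, and the GRmetrics R package was used to derive the area under the dose-response curve.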

[2] = tested on: ID211 patient-derived PDAC 2D line (post-FOLFIRINOX); assay: as above; details: 72 h; top dose: 10 µM
In short: as §1

| Compound | normalised area under dose-response curve [1] | normalised area under dose-response curve [2] |
| --- | --- | --- |
| CC(C)(C)c1cc(NC(=O)Nc2ccc(-c3cn4c(n3)sc3cc(OCCN5CCOCC5)ccc34)cc2)no1 [Quizartinib (AC220)] | 0.974 | 0.809 |
| Nc1cc(F)ccc1NC(=O)/C=C/c1cnn(C/C=C/c2ccccc2)c1 [RGFP966] | 0.911 | 0.779 |
| Cc1cc2c3c([n+](C)c4ccc(F)cc4c3c1)-c1cc(F)ccc1N2C [RHPS 4 methosulfate] | 0.945 | 0.906 |
| O=C(NCc1cccc(O)c1)Nc1nc(-c2ccncc2)cs1 [RKI-1447] | 1.04 | 0.962 |
| O=C(CBr)N1CC([N+](=O)[O-])([N+](=O)[O-])C1 [RRx-001] | 0.915 | 0.843 |
| COC(=O)c1ccc([C@H]2c3[nH]c4ccccc4c3C[C@H](C(=O)OC)N2C(=O)CCl)cc1 [RSL3] | 0.465 | 0.175 |
| CNC(=O)c1cc(Oc2ccc(NC(=O)Nc3cc(C(C)(C)C)nn3-c3ccc4ncccc4c3)c(F)c2)ccn1 [Rebastinib (DCC-2036)] | 0.853 | 0.885 |
| CNC(=O)c1cc(Oc2ccc(NC(=O)Nc3ccc(Cl)c(C(F)(F)F)c3)c(F)c2)ccn1 [Regorafenib (BAY 73-4506)] | 0.775 | 0.936 |
| N#Cc1ccc(-c2csc(NN=C3CCCC3)n2)cc1 [Remodelin] | 0.941 | 0.854 |
| CN(C)C(=O)c1cc2cnc(Nc3ccc(N4CCNCC4)cn3)nc2n1C1CCCC1 [Ribociclib (LEE011)] | 0.961 | 0.812 |
| C/C=C1\NC(=O)[C@H]2CSSCC/C=C/[C@H](CC(=O)N[C@H](C(C)C)C(=O)N2)OC(=O)[C@H](C(C)C)NC1=O [Romidepsin] | 0.138 | 0.171 |
| Cc1nc(C(=O)NCC(=O)O)c(O)c2ccc(Oc3ccccc3)cc12 [Roxadustat (FG-4592)] | 0.951 | 0.842 |
| O=C(NNc1nc2cc(F)ccc2n2cccc12)c1cnccn1 [SC144] | 0.795 | 0.631 |
| CC(C)(C)C(=O)Nc1ccc2c(c1)C(=O)C(=O)c1ccccc1-2 [SF1670] | 0.966 | 0.809 |
| O=c1cc(N2CCOCC2)oc2c(-c3ccc4c(c3)OCCO4)csc12 [SF2523] | 0.968 | 0.768 |
| O=C(NCC(=O)N1CCCC1)Nc1ccc2cnccc2c1 [SGC707] | 0.955 | 0.863 |
| CC(C)N(CCCNC(=O)Nc1ccc(C(C)(C)C)cc1)C[C@H]1O[C@@H](n2cc(Br)c3c(N)ncnc32)[C@H](O)[C@@H]1O [SGC 0946] | 0.94 | 0.809 |
| COc1ccc(CCc2nc3cc(-c4c(C)noc4C)ccc3n2C[C@H](C)N2CCOCC2)cc1Cl [SGC-CBP30] | 0.984 | 0.951 |
| Cc1cc(Nc2ccc(NC(=O)c3ccc(Nc4ccnc5ccccc45)cc3)cc2)nc(N)n1 [SGI-1027] | 0.662 | 0.569 |
| CN1CCC(CNc2ccc3ncc(-c4cccc(OC(F)(F)F)c4)n3n2)CC1 [SGI-1776 free base] | 0.949 | 0.788 |

| Compound | normalised area under dose-response curve [1] | normalised area under dose-response curve [2] |
| --- | --- | --- |
| Cc1c[nH]c2nc(Nc3ccc(N4CCN(C)CC4)c(F)c3)nc(-c3cccc(CC#N)c3)c12 [SGI-7079] | 0.803 | 0.638 |
| Cn1cc(-c2ccc3nnc(Sc4ccc5ncccc5c4)n3n2)cn1 [SGX-523] | 0.983 | 0.941 |
| CC1(N)CCN(c2cnc(-c3cccc(Cl)c3Cl)c(N)n2)CC1 [SHP099 dihydrochloride] | 0.963 | 0.91 |
| C=CCNc1ncnc2ccc(Br)cc12 [SMER28] | 0.997 | 0.825 |
| C/C(=N\NC(=O)c1cccc(S(=O)(=O)N2CCOCC2)c1)c1cc(Cl)ccc1O [SP2509] | 0.86 | 0.824 |
| O=C(Nc1cc(C(F)(F)F)ccc1N1CCCCC1)c1ccncc1 [SRPIN340] | 0.964 | 0.905 |
| O=C(Nc1ccccc1-c1cn2c(CN3CCNCC3)csc2n1)c1cnc2ccccc2n1 [SRT1720 HCl] | 0.865 | 0.812 |
| CC(C)(C)c1ccc(S(=O)(=O)NCc2ccc(C(=O)Nc3cccnc3)cc2)cc1 [STF-31] | 0.864 | 0.865 |
| Cc1cc2c(C(=O)NC[C@H](C)c3ccccc3)c(O)c(O)cc2c(O)c1-c1c(C)cc2c(C(=O)NC[C@H](C)c3ccccc3)c(O)c(O)cc2c1O [Sabutoclax] | 0.822 | 0.909 |
| CC(C(=O)Nc1cccc(/N=C/c2c(O)ccc3ccccc23)c1)c1ccccc1 (stereo not given) [Salermide] | 0.876 | 0.858 |
| CC(C)=CCC/C(C)=C/CC/C(C)=C/CSc1ccccc1C(=O)O [Salirasib] | 0.949 | 0.881 |
| CC(C)n1nc(-c2ccc3oc(N)nc3c2)c2c(N)ncnc21 [Sapanisertib (INK 128, MLN0128)] | 0.541 | 0.389 |
| CN1CCN(CCOc2cc(OC3CCOCC3)c3c(Nc4c(Cl)ccc5c4OCO5)ncnc3c2)CC1 [Saracatinib (AZD0530)] | 0.858 | 0.609 |
| NC(=O)C1CCCc2c1[nH]c1ccc(Cl)cc21 (stereo not given) [Selisistat (EX 527)] | 0.971 | 0.997 |
| Cc1cc(F)c(C(=O)Nc2cccc(-c3nncn3C(C)C)n2)cc1-n1cnc(C2CC2)c1 [Selonsertib (GS-4997)] | 0.951 | 0.911 |
| Cn1cnc2c(F)c(Nc3ccc(Br)cc3Cl)c(C(=O)NOCCO)cc21 [Selumetinib (AZD6244)] | 0.676 | 0.492 |
| O=C(O)c1ccc2c(c1)nc(Nc1cccc(Cl)c1)c1ccncc12 [Silmitasertib (CX-4945)] | 0.924 | 0.88 |
| O=C([O-])C(Cl)Cl.[Na+] [Sodium dichloroacetate (DCA)] | 0.996 | 0.951 |
| CNC(=O)c1cc(Oc2ccc(NC(=O)Nc3ccc(Cl)c(C(F)(F)F)c3)cc2)ccn1 [Sorafenib Tosylate] | 0.947 | 0.953 |
| CN1CCN(c2nc(C3=C(c4c[nH]c5ccccc45)C(=O)NC3=O)c3ccccc3n2)CC1 [Sotrastaurin] | 0.978 | 0.941 |

Reference: the supplement of paper PMC8988213
